# Results as given in US20090099213A1, “Ortho-Condensed Pyridine and Pyrimidine Derivatives (e.g., Purines) as Protein Kinases Inhibitors” (Astex Therapeutics Limited, priority 2004, published 2009).
# Read-outs that look alike come from different tables or passages of the source.
# Legend:
# PKB-PIF = biological target: T1, PKB-PIF (Homo sapiens, UniProt P31751); assay: Measurement of PKB kinase inhibitory activity (IC50), radiometric filter plate assay; format: biochemical
# T1 construct: fusion partner; made in house
# Source text: The inhibition of protein kinase B (PKB) activity by compounds can be determined essentially as described by Andjelkovic et al. (Mol. Cell. Biol. 19, 5061-5072 (1999)) but using a fusion protein described as PKB-PIF and described in full by Yang et al (Nature Structural Biology 9, 940-944 (2002)). The protein is purified and activated with PDK1 as described by Yang et al. The peptide AKTide-2T (H-A-R-K-R-E-R-T-Y-S-F-G-H-H-A-OH) obtained from Calbiochem (#123900) is used as a substrate. A final concentration of 0.6 nM enzyme is used in a buffer that includes 20 mM MOPS pH 7.2, 30 μM ATP/γ^33P-ATP and 25 μM substrate. Compounds are added in DMSO solution to a final DMSO concentration of 2.5%. The reaction is allowed to proceed for 20 minutes before addition of excess orthophosphoric acid to quench activity. The reaction mixture is transferred to a phosphocellulose filter plate where the peptide binds and the unused ATP is washed away. After washing, scintillant is added and the incorporated activity measured by scintillation counting.
# The % inhibition of the PKB activity is calculated and plotted in order to determine the concentration of test compound required to inhibit 50% of the PKB activity (IC50).
# PKA catalytic domain = biological target: T2, PKA catalytic domain (Homo sapiens, UniProt P17612); assay: Measurement of PKA kinase inhibitory activity (IC50), radiometric filter plate assay; format: biochemical; details: 1 nM enzyme, 40 μM ATP, 20 minutes
# T2 construct: using the PKA catalytic domain from Upstate Biotechnology (#14-440); purchased Upstate Biotechnology 14-440
# Method: Compounds of the invention can be tested for PK inhibitory activity using the PKA catalytic domain from Upstate Biotechnology (#14-440) and the 9 residue PKA specific peptide ([…]), also from Upstate Biotechnology (#12-257), as the substrate. A final concentration of 1 nM enzyme is used in a buffer that includes 20 mM MOPS pH 7.2, 40 μM ATP/γ^33P-ATP and […] substrate. Compounds are added in dimethylsulphoxide (DMSO) solution to a final DMSO concentration of 2.5%. The reaction is allowed to proceed for 20 minutes before addition of excess orthophosphoric acid to quench activity. Unincorporated γ^33P-ATP is then separated from phosphorylated proteins on a Millipore MAPH filter plate. The plates are washed, scintillant is added and the plates are then subjected to counting on a Packard Topcount.
# The % inhibition of the PKA activity is calculated and plotted in order to determine the concentration of test compound required to inhibit 50% of the PKA activity (IC50).
# [1] = 0.6 nM enzyme, 30 μM ATP, 25 μM AKTide-2T substrate, 20 minutes, read-out: IC50 (PKB activity)
# T1 sequence (P31751 with tags, fused parts or gaps limits assumed): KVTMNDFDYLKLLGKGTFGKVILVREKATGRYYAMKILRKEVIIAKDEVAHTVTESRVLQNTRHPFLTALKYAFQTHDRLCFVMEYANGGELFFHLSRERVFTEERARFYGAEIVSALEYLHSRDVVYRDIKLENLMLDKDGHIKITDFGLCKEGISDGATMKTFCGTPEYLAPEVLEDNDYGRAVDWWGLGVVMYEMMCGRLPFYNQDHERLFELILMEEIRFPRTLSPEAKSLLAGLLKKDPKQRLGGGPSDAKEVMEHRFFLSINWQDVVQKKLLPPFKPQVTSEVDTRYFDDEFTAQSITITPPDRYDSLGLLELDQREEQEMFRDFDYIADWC
IC50 (PKB-PIF; [1]),IC50 (PKA catalytic domain),SMILES,IC50 (PKB-PIF)
< 10 µM,,"NC(c1ccc(Cl)cc1)C1CCN(c2ccnc3[nH]ccc23)CC1 (single isomer, unassigned) [Example 32, C-(4-Chlorophenyl)-C-[1-(1H-pyrrolo[2,3-b]pyridin-4-yl)piperidin-4-yl]methylamine]",
< 10 µM,< 150 µM,"NC(CCNc1ncnc2[nH]c(=O)[nH]c12)c1ccc(F)cc1 (centres unmarked) [Example 4, 6-[3-Amino-3-(4-fluorophenyl)propylamino]-7,9-dihydropurin-8-one]",
< 10 µM,< 10 µM,"NC(CCNc1ncnc2[nH]cnc12)c1ccc(Cl)cc1 (centres unmarked) [Example 5, 1-(4-Chlorophenyl)-N^3-(9H-purin-6-yl)propane-1,3-diamine]",
< 10 µM,< 10 µM,"CNCc1ccc(-c2ncnc3[nH]cnc23)cc1 [Example 6, Methyl-(4-(9H-purin-6-yl)benzyl)amine]",
< 50 µM,,"N#CCc1ccc(-c2ncnc3[nH]cnc23)cc1 [Example 8, (4-(9H-purin-6-yl)phenyl)acetonitrile]",
< 50 µM,,"NCCc1ccc(-c2ncnc3[nH]cnc23)cc1 [Example 9, 2-(4-(9H-Purin-6-yl)phenyl)ethylamine]",
< 50 µM,,"NC(=O)C1CCN(c2ncnc3[nH]cnc23)CC1 [Example 11, 1-(9H-Purin-6-yl)piperidine-4-carboxylic Acid Amide]",
< 10 µM,< 10 µM,"NCC1CCN(c2ncnc3[nH]cnc23)CC1 [Example 12, C-[1-(9H-Purin-6-yl)piperidin-4-yl]methylamine]",
< 10 µM,< 10 µM,"NC(c1ccc(Cl)cc1)C1CCN(c2ncnc3[nH]c(=O)[nH]c23)CC1 (centres unmarked) [Example 14, 6-[4-(Amino(4-chlorophenyl)methyl)piperidin-1-yl]-7,9-dihydropurin-8-one]",
< 10 µM,< 10 µM,"NCC1CCN(c2ncnc3[nH]ncc23)CC1 [Example 17, C-[1-(1H-Pyrazolo[3,4-d]pyrimidin-4-yl)-piperidin-4-yl]-methylamine]",
< 10 µM,< 10 µM,"Clc1ccc(C2(c3ccc(-c4ncnc5[nH]ccc45)cc3)CCNCC2)cc1 [Example 23, 4-{4-[4-(4-Chloro-phenyl)-piperidin-4-yl]-phenyl}-7H-pyrrolo[2,3-d]pyrimidine]",
< 10 µM,< 10 µM,"NC(c1ccc(Cl)cc1)C1CCN(c2ncnc3[nH]ccc23)CC1 (centres unmarked) [Example 25, C-4-Chlorophenyl-C-[1-(7H-pyrrolo[2,3-d]pyrimidin-4-yl)-piperidin-4-yl]-methylamine]",
< 10 µM,,"NC(c1ccc(Cl)cc1)C1CCN(c2ncnc3[nH]cnc23)CC1 (centres unmarked) [Example 26, C-(4-Chloro-phenyl)-C-[1-(9H-purin-6-yl)-piperidin-4-yl]-methylamine]",
< 10 µM,< 10 µM,"CNCC(c1ccc(Cl)cc1)c1ccc(-c2ccnc3[nH]ccc23)cc1 (centres unmarked) [Example 30, {2-(4-Chloro-phenyl)-2-[4-(1H-pyrrolo[2,3-b]pyridin-4-yl)-phenyl]-ethyl}-methyl-amine]",
< 10 µM,< 10 µM,"NCC1CCCN(c2ncnc3[nH]ccc23)C1 (centres unmarked) [Example 31, C-[1-(7H-Pyrrolo[2,3-d]pyrimidin-4-yl)piperidin-3-yl]methylamine]",

# The next lines start with the compound.
SMILES,IC50 (PKB-PIF; [1]),IC50 (PKA catalytic domain),IC50 (PKB-PIF)
"CNCCCNc1ncnc2[nH]cnc12 [Example 1, N-Methyl-N′-(9H-purin-6-yl)-propane-1,3-diamine]",< 10 µM,,
"CNCCCNc1ncnc2[nH]c(=O)[nH]c12 [Example 2, 6-(3-Methylamino-propylamino)-7,9-dihydro-purin-8-one]",< 10 µM,,
"NC(CCNc1ncnc2[nH]cnc12)c1ccc(F)cc1 (centres unmarked) [Example 3, 1-(4-Fluorophenyl)-N^3-(9H-purin-6-yl)propane-1,3-diamine]",< 10 µM,,
"CNCc1cccc(-c2ncnc3[nH]cnc23)c1 [Example 7, Methyl-(3-(9H-purin-6-yl)benzyl)amine]",< 10 µM,< 10 µM,
"NCCc1cccc(-c2ncnc3[nH]cnc23)c1 [Example 10, 2-(3-(9H-purin-6-yl)phenyl)ethylamine]",,,< 10 µM
"NC(c1ccccc1)C1CCN(c2ncnc3[nH]c(=O)[nH]c23)CC1 (centres unmarked) [Example 13, 6-[4-(Aminophenylmethyl)piperidin-1-yl]-7,9-dihydropurin-8-one]",< 10 µM,,
"NCC1CCN(c2ncnc3[nH]c(=O)[nH]c23)CC1 [Example 15, 6-(4-Aminomethylpiperidin-1-yl)-7,9-dihydropurin-8-one]",< 10 µM,,
"NCCCOc1cccc(-c2ncnc3[nH]cnc23)c1 [Example 16, 3-[3-(9H-Purin-6-yl)-phenoxy]-propylamine]",< 10 µM,,
"NCC1CCN(c2ncnc3[nH]ccc23)CC1 [Example 18, C-[1-(7H-Pyrrolo[2,3-d]pyrimidin-4-yl)-piperidin-4-yl]-methylamine]",< 10 µM,< 10 µM,
"NC(c1ccccc1)c1ccc(-c2ncnc3[nH]cnc23)cc1 (centres unmarked) [Example 19, C-Phenyl-C-[4-(9H-purin-6-yl)-phenyl]-methylamine]",< 10 µM,,
"NC(Cc1ccccc1)c1ccc(-c2ncnc3[nH]cnc23)cc1 (centres unmarked) [Example 20, 2-Phenyl-1-[4-(9H-purin-6-yl)-phenyl]-ethylamine]",< 10 µM,< 10 µM,
"NC(Cc1ccccc1)C1CCN(c2ncnc3[nH]c(=O)[nH]c23)CC1 (centres unmarked) [Example 21, 6-[4-(1-Amino-2-phenylethyl)piperidin-1-yl]-7,9-dihydropurin-8-one]",< 50 µM,,
"Clc1ccc(C2(c3ccc(-c4ncnc5[nH]cnc45)cc3)CCNCC2)cc1 [Example 22, 6-(4-[4-(4-Chlorophenyl)-piperidin-4-yl)-phenyl)-9H-purine]",< 10 µM,< 10 µM,
"NC(c1ccccc1)C1CCN(c2ncnc3[nH]ccc23)CC1 (centres unmarked) [Example 24, C-Phenyl-C-[1-(7H-pyrrolo[2,3-d]pyrimidin-4-yl)-piperidin-4-yl]-methylamine]",< 10 µM,,
"Clc1ccc(C2(c3ccc(-c4ccnc5[nH]ccc45)cc3)CCNCC2)cc1 [Example 27, 4-{4-[4-(4-Chloro-phenyl)-piperidin-4-yl]-phenyl}-1H-pyrrolo[2,3-b]pyridine]",< 10 µM,,
"NC(c1ccc(Cl)cc1)c1ccc(-c2ncnc3[nH]cnc23)cc1 (centres unmarked) [Example 28, C-(4-Chloro-phenyl)-C-[4-(9H-purin-6-yl)-phenyl]-methylamine]",< 10 µM,,
"NC(c1ccc(Cl)cc1)C1CCN(c2ccnc3[nH]ccc23)CC1 (centres unmarked) [Example 29, C-(4-Chlorophenyl)-C-[1-(1H-pyrrolo[2,3-b]pyridin-4-yl)piperidin-4-yl]methylamine]",< 10 µM,< 10 µM,
